Data reported in ChEMBL document CHEMBL1201862, “PubChem BioAssay data set” (2004).
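Step 1: Grow cells in 96-well plates. Step 2: Expose to compound for 48 hours at 5 concentrations. Step 3: Interpolate endpoints linearly; if unreached, use highest concentration. At the GI50, growth is halved.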 The source made the active and inactive calls. Cut-off read from the data, not from the text of the source: active = GI50 up to about 1.1 µM and inactive = higher.

Columns and labels:
Experiment in all cases: DTP human tumour cell line panel, 48 h
[1] = tested on: TK-10
[2] = tested on: 786-0
[3] = tested on: UO-31
[4] = tested on: NCI-H522
[5] = tested on: Malme-3M
[6] = tested on: LXFL 529
[7] = tested on: SK-MEL-5
[8] = tested on: EKVX
[9] = tested on: HOP-62
[10] = tested on: HCT-116
[11] = tested on: KM12
[12] = tested on: UACC-62
[13] = tested on: RPMI-8226
[14] = tested on: SF-268
[15] = tested on: DU-145
[16] = tested on: BT-549
[17] = tested on: A498
[18] = tested on: T47D
[19] = tested on: MDA-MB-435
[20] = tested on: NCI/ADR-RES

Row | SMILES | GI50 [1] | GI50 [2] | GI50 [3] | GI50 [4] | GI50 [5] | GI50 [6] | GI50 [7] | GI50 [8] | GI50 [9] | GI50 [10] | GI50 [11] | GI50 [12] | GI50 [13] | GI50 [14] | GI50 [15] | GI50 [16] | GI50 [17] | GI50 [18] | GI50 [19] | GI50 [20]
1 | CCN(CC)CCNC(=O)c1nn(C)c(=S)[nH]c1=S | > 100 µM (inactive) | > 100 µM (inactive) | > 100 µM (inactive) | > 100 µM (inactive) | > 100 µM (inactive) | > 100 µM (inactive) | > 100 µM (inactive) | > 100 µM (inactive) | > 100 µM (inactive) | > 100 µM (inactive) | > 100 µM (inactive) | > 100 µM (inactive) | > 100 µM (inactive) |  |  |  |  |  |  | 
2 | CCCCCC/C=C/CCCCCCCc1cccc(O)c1C(=O)O | 70.3 µM (inactive) | > 100 µM (inactive) | 86.9 µM (inactive) | 52.8 µM (inactive) | > 100 µM (inactive) | 45.4 µM (inactive) |  | 32.7 µM (inactive) | 33.6 µM (inactive) | > 100 µM (inactive) | > 100 µM (inactive) | 36.4 µM (inactive) | 54.2 µM (inactive) | 26.9 µM (inactive) |  |  |  |  |  | 
3 | CCOC(=O)c1ccc(N2C(=O)/C(=C\OC)c3ccccc3C2=O)cc1 | 15.1 µM (inactive) | 27.2 µM (inactive) | 15.5 µM (inactive) | 29 µM (inactive) | 18.7 µM (inactive) | 23.6 µM (inactive) | 70.8 µM (inactive) | > 100 µM (inactive) |  | 34.6 µM (inactive) | 42.6 µM (inactive) | 23.2 µM (inactive) | 27.8 µM (inactive) | 27.7 µM (inactive) |  |  |  |  |  | 
4 | On1c(-c2ccccc2)c(-c2c(-c3ccccc3)n(O)c3ccccc23)c2ccccc21 | 38 µM (inactive) | 14.9 µM (inactive) | 15.5 µM (inactive) | 22.8 µM (inactive) | 32.3 µM (inactive) | 3.18 µM (inactive) | 21.9 µM (inactive) |  |  | 48.5 µM (inactive) | 30.8 µM (inactive) | 55.3 µM (inactive) |  | 55 µM (inactive) |  |  |  |  |  | 
5 | N#CC(NNC(=O)c1ccccc1O)c1ccccc1 (stereo unspecified) | 4.3 µM (inactive) | 2.5 µM (inactive) | 0.562 µM (active) | 10.2 µM (inactive) | 4.75 µM (inactive) | 0.652 µM (active) | 16.1 µM (inactive) |  | 5.89 µM (inactive) | 0.577 µM (active) | 1.61 µM (inactive) | 0.398 µM (active) | 6.32 µM (inactive) | 0.422 µM (active) |  |  |  |  |  | 
6 | C=C1C[C@@H](O)[C@@H](Br)C(C)(C)[C@]12CCC(C)(Br)C(Cl)C2 (stereo partly specified) | > 50 µM (inactive) | > 50 µM (inactive) | > 50 µM (inactive) | > 50 µM (inactive) | > 50 µM (inactive) |  | > 50 µM (inactive) | 25.4 µM (inactive) | > 50 µM (inactive) | > 50 µM (inactive) | 1.07 µM (active) | > 50 µM (inactive) | 43.9 µM (inactive) | > 50 µM (inactive) | > 50 µM (inactive) | > 50 µM (inactive) | > 50 µM (inactive) | > 50 µM (inactive) | > 50 µM (inactive) | > 50 µM (inactive)
7 | O=C(O)[C@@]1(Cc2ccc(O)cc2)C[C@@H]2Cc3ccccc3N2N1 | > 100 µM (inactive) | > 100 µM (inactive) | > 100 µM (inactive) | > 100 µM (inactive) | > 100 µM (inactive) |  | > 100 µM (inactive) | > 100 µM (inactive) | > 100 µM (inactive) | > 100 µM (inactive) | > 100 µM (inactive) | > 100 µM (inactive) | > 100 µM (inactive) | > 100 µM (inactive) | > 100 µM (inactive) | > 100 µM (inactive) | > 100 µM (inactive) | > 100 µM (inactive) | > 100 µM (inactive) | > 100 µM (inactive)
